Measured values: patent publication US10111890B2, “9-aminomethyl minocycline compounds and uses thereof” (Paratek Pharmaceuticals, Inc., priority 2016, dated 2018)
Several values for one entry are separate records, joined by “and”; a condition that tells them apart may be missing. Equal values may be shown once.

What was measured:
[1] = human, in vivo
[2] = system: ABSSSI; experiment: Earlier Phase 3 i.v.-to-oral omadacycline vs linezolid study in ABSSSI: clinical success; assay type: in vivo, human; conditions: i.v. with switch to oral
[3] = system: ABSSSI known or suspected to be due to Gram-positive pathogens; experiment: Phase 3 oral omadacycline vs oral linezolid in ABSSSI: Early Clinical Response 48-72 hours after first dose; assay type: in vivo, human; conditions: for Early Clinical Success, %: micro-mITT, % of N1; for Difference (95% CI) in Early Clinical Success rate: omadacycline minus linezolid
[4] = 48-72 hours after first dose, mITT population
[5] = Cellulitis/erysipelas, actual type, 48-72 hours, mITT
[6] = Cellulitis/erysipelas, as randomized, 48-72 hours, mITT
[7] = Major Abscess, actual type, 48-72 hours, mITT
[8] = Major Abscess, as randomized, 48-72 hours, mITT
[9] = Wound Infection, actual type, 48-72 hours, mITT
[10] = Wound Infection, as randomized, 48-72 hours, mITT

CN(C)c1cc(CNCC(C)(C)C)c(O)c2c1C[C@H]1C[C@H]3[C@H](N(C)C)C(O)=C(C(N)=O)C(=O)[C@@]3(O)C(O)=C1C2=O [Omadacycline, 9-[(2,2-dimethyl-propylamino)-methyl]-minocycline]
discontinuation due to TEAE, % of subjects [1]: 1.9%
serious TEAEs, % of subjects [1]: 3.4%
treatment-emergent adverse events (TEAEs), % of subjects [1]: 48.3%
clinical success based on investigator's assessment of clinical response ([2]; 7-14 days after the last dose): 86.1%
clinical success based on a reduction of lesion size ([2]; 48-72 hours after the first dose, FDA primary analysis population (N=627)): 84.8%
non-inferiority to linezolid ([2]; 7-14 days): non-inferior
Difference (95% CI) in Early Clinical Success rate, omadacycline minus linezolid [3, 4]: 5.0% and 5.0 (−0.2, 10.3) %
Early Clinical Response: Clinical Failure [3, 4]: 26 (7.2) n (%)
Early Clinical Response: Clinical Failure or Indeterminate [3, 4]: 45 (12.5) n (%)
Early Clinical Response: Indeterminate [3, 4]: 19 (5.3) n (%)
Early Clinical Response: Clinical Success ([3]; 48-72 hours after first dose, mITT population (N = 360 per arm)): 315 (87.5) n (%)
Early Clinical Response: Clinical Success ([3]; Cellulitis/erysipelas, actual type of infection, 48-72 hours, mITT): 68 (79.1) n (%)
Early Clinical Response: Clinical Failure [3, 5]: 8 (9.3) n (%)
Early Clinical Response: Clinical Failure or Indeterminate [3, 5]: 18 (20.9) n (%)
Early Clinical Response: Indeterminate [3, 5]: 10 (11.6) n (%)
Early Clinical Response: Clinical Failure [3, 6]: 8 (9.8) n (%)
Early Clinical Response: Clinical Failure or Indeterminate [3, 6]: 17 (20.7) n (%)
Early Clinical Response: Indeterminate [3, 6]: 9 (11.0) n (%)
Early Clinical Response: Clinical Success ([3]; Cellulitis/erysipelas, type of infection as randomized, 48-72 hours, mITT): 65 (79.3) n (%)
Early Clinical Response: Clinical Success ([3]; Major Abscess, actual type of infection, 48-72 hours, mITT): 60 (93.8) n (%)
Early Clinical Response: Clinical Failure [3, 7]: 1 (1.6) n (%)
Early Clinical Response: Clinical Failure or Indeterminate [3, 7]: 4 (6.3) n (%)
Early Clinical Response: Indeterminate [3, 7]: 3 (4.7) n (%)
Early Clinical Response: Clinical Failure [3, 8]: 1 (1.6) n (%)
Early Clinical Response: Clinical Failure or Indeterminate [3, 8]: 4 (6.3) n (%)
Early Clinical Response: Indeterminate [3, 8]: 3 (4.7) n (%)
Early Clinical Response: Clinical Success ([3]; Major Abscess, type of infection as randomized, 48-72 hours, mITT): 60 (93.8) n (%)
Early Clinical Response: Clinical Success ([3]; Wound Infection, actual type of infection, 48-72 hours, mITT): 187 (89.0) n (%)
Early Clinical Response: Clinical Failure [3, 9]: 17 (8.1) n (%)
Early Clinical Response: Clinical Failure or Indeterminate [3, 9]: 23 (11.0) n (%)
Early Clinical Response: Indeterminate [3, 9]: 6 (2.9) n (%)
Early Clinical Response: Clinical Failure [3, 10]: 17 (7.9) n (%)
Early Clinical Response: Clinical Failure or Indeterminate [3, 10]: 24 (11.2) n (%)
Early Clinical Response: Indeterminate [3, 10]: 7 (3.3) n (%)
Early Clinical Response: Clinical Success ([3]; Wound Infection, type of infection as randomized, 48-72 hours, mITT): 190 (88.8) n (%)
Early Clinical Success, % ([3]; baseline pathogen Clostridium perfringens, 48-72 hours after first dose): (100.0) %
Early Clinical Success, % ([3]; baseline pathogen Enterobacter cloacae, 48-72 hours after first dose): (100.0) %
Early Clinical Success, % ([3]; baseline pathogen Enterococcus faecalis VSE, 48-72 hours after first dose): (85.7) %
Early Clinical Success, % ([3]; baseline pathogen Enterococcus faecalis, 48-72 hours after first dose): (87.5) %
Early Clinical Success, % ([3]; baseline pathogen Enterococcus faecium VSE, 48-72 hours after first dose): (100.0) %
Early Clinical Success, % ([3]; baseline pathogen Enterococcus faecium, 48-72 hours after first dose): (100.0) %
Early Clinical Success, % ([3]; baseline pathogen Escherichia coli, 48-72 hours after first dose): (100.0) %
Early Clinical Success, % ([3]; baseline pathogen Finegoldia magna, 48-72 hours after first dose): (66.7) %
Early Clinical Success, % ([3]; baseline pathogen Klebsiella pneumoniae, 48-72 hours after first dose): (80.0) %
Early Clinical Success, % ([3]; baseline pathogen MRSA, 48-72 hours after first dose): (93.3) %
Early Clinical Success, % ([3]; baseline pathogen MSSA, 48-72 hours after first dose): (84.2) %
Early Clinical Success, % ([3]; baseline pathogen Prevotella denticola, 48-72 hours after first dose): (100.0) %
Early Clinical Success, % ([3]; baseline pathogen Prevotella melaninogenica, 48-72 hours after first dose): (100.0) %
Early Clinical Success, % ([3]; baseline pathogen Staphylococcus aureus, 48-72 hours after first dose): (88.2) %
Early Clinical Success, % ([3]; baseline pathogen Staphylococcus lugdunensis, 48-72 hours after first dose): (80.0) %
Early Clinical Success, % ([3]; baseline pathogen Streptococcus agalactiae, 48-72 hours after first dose): (50.0) %
Early Clinical Success, % ([3]; baseline pathogen Streptococcus anginosus group, 48-72 hours after first dose): (94.7) %
Early Clinical Success, % ([3]; baseline pathogen Streptococcus anginosus, 48-72 hours after first dose): (100.0) %
Early Clinical Success, % ([3]; baseline pathogen Streptococcus constellatus, 48-72 hours after first dose): (88.9) %
Early Clinical Success, % ([3]; baseline pathogen Streptococcus intermedius, 48-72 hours after first dose): (91.3) %
Early Clinical Success, % ([3]; baseline pathogen Streptococcus mitis, 48-72 hours after first dose): (100.0) %
Early Clinical Success, % ([3]; baseline pathogen Streptococcus pyogenes, 48-72 hours after first dose): (82.8) %
Early Clinical Success, % ([3]; baseline pathogen Streptococcus viridans group, 48-72 hours after first dose): (100.0) %
Difference (95% CI) in Early Clinical Success rate ([3]; Cellulitis/erysipelas, actual type, mITT): 1.7 (−10.8, 14.3)
Difference (95% CI) in Early Clinical Success rate ([3]; Cellulitis/erysipelas, as randomized, mITT): 1.9 (−10.8, 14.5)
